Laboratory results reported in US20220176084A1, “MEDICAL DEVICE WITH DRUG-ELUTING COATING ON MODIFIED DEVICE SURFACE” (Bard Peripheral Vascular, Inc., priority 2019, published 2022).
Blank lines part the entries; values can stand above or below the compound they belong to.

Assays:
[1] = octanol/water; cited from earlier work
[2] = stability under ethylene oxide sterilization, heating and aging; reaction with paclitaxel; settings: for reaction with paclitaxel: ethylene oxide sterilization, heating, aging
[3] = drug absorption by tissue after brief balloon deployment; type: in vivo; settings: formulated with paclitaxel; 0.2-2 minutes of deployment
Source text: Some of the surfactants described herein are very stable under heating. They survive an ethylene oxide sterilization process.
When the chemical compounds described herein are formulated with paclitaxel, a top coat layer may be advantageous in order to prevent premature drug loss during the device delivery process before deployment at the target site, since hydrophilic small molecules sometimes release drug too easily. The chemical compounds herein rapidly elute drug off the balloon during deployment at the target site.
Mixtures or combinations of a surfactant and a water-soluble small molecule confer the advantages of both additives. The water insoluble drug often has a poor compatibility with highly water-soluble chemical compounds, and the surfactant improves compatibility. […] The surfactant reduces drug loss during transit to a target site. The water-soluble chemical compound improves the release of drug off the balloon and absorption of the drug in the tissue.

[4] = cited from earlier work
[5] = test system: protein; settings: cited from earlier work
[6] = molecular target: albumin (Homo sapiens, UniProt P02768); settings: share of protein binding; cited from earlier work
albumin, sequence (P02768 25-609): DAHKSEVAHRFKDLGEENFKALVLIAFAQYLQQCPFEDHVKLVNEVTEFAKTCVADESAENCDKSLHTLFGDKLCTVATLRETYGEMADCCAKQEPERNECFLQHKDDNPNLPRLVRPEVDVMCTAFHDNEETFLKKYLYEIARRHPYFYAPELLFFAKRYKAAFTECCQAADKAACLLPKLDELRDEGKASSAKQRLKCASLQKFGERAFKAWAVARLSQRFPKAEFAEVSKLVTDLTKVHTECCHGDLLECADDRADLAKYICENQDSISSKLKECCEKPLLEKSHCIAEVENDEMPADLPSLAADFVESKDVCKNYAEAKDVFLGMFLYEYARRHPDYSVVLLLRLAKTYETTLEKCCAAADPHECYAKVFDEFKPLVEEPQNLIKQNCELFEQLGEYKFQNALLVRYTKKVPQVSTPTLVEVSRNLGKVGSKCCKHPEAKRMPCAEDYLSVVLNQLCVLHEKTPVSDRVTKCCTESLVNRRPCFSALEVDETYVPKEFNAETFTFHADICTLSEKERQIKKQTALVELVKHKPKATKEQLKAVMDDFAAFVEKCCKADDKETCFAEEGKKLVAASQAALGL

Compound: COc1ccc(O)c(C(C)(C)C)c1 [Butylated hydroxyanisole (BHA), Butylated hydroxyanisole]
log P [1]: 1.31

reaction with paclitaxel [2]: reacted with paclitaxel
Compound: O=C1O[C@H]([C@@H](O)CO)C(O)=C1O [ascorbic acid]

Compound: O=C(O)c1ccccc1 [benzoic acid]
reaction with paclitaxel [2]: reacted with paclitaxel
stability under ethylene oxide sterilization, heating, and aging process ([2]; experimentally): not stable

reaction with paclitaxel [2]: reacted with paclitaxel
Compound: OCCNCCO [diethanolamine]
survival of ethylene oxide sterilization process [2]: do not necessarily survive

drug absorption by tissue / drug levels in tissue [3]: unexpectedly high
Compound: O=C1O[C@H](CO)[C@@H](O)[C@H](O)[C@H]1O [gluconolactone]

Compound: O=C(O)/C=C\C(=O)O [maleic acids]
water and ethanol solubility ([4]; in words): very high

Compound: NC(=O)c1cccnc1 [niacinamide]
water and ethanol solubility ([4]; in words): very high

Compound: CC(=O)O[C@H]1C(=O)[C@@]2(C)[C@H]([C@H](OC(=O)c3ccccc3)[C@]3(O)C[C@H](OC(=O)[C@H](O)[C@@H](NC(=O)c4ccccc4)c4ccccc4)C(C)=C1C3(C)C)[C@]1(OC(C)=O)CO[C@@H]1C[C@@H]2O [paclitaxel, reference compound]
increase of solubility in PBS with the addition of BSA ([4]; PBS, BSA added): over 20 fold

Compound: CO[C@H]1C[C@@H]2CC[C@@H](C)[C@@](O)(O2)C(=O)C(=O)N2CCCC[C@H]2C(=O)O[C@H]([C@H](C)C[C@@H]2CC[C@@H](O)[C@H](OC)C2)CC(=O)[C@H](C)/C=C(\C)[C@@H](O)[C@@H](OC)C(=O)[C@H](C)C[C@H](C)/C=C/C=C/C=C/1C [rapamycin]
protein bound [5]: 92%
protein bound primarily to albumin [6]: 97%

drug absorption by tissue / drug levels in tissue [3]: unexpectedly high
Compound: O=C1O[C@H](CO)[C@@H](O)[C@H]1O [ribonic acid lactone]

Compound: Cc1ncc(C[n+]2csc(CCO)c2C)c(N)n1 [thiamine]
water and ethanol solubility ([4]; in words): very high

Compound: PEG-20 sorbitan monolaurate [Tween 20]
log P [1]: about 3.0

Compound: Sudan Red
solubility in aqueous solvent ([4]; in words): insoluble
